Measured values taken from patent EP2535710A1, “Method for determining the immune toxicity of a compound in vitro” (Rijksinstituut Voor Volksgezondheid En Milieu, priority 2011, dated 2012).

Assays:
Murine EL4 cells = settings: trypan blue dye exclusion, 0.5 µM TBTO, 37 °C for 6 hr, range in all experiments
Method: Murine EL4 cells were cultured as described before [10]. Each treated sample or control contained 5×10^7 cells in a volume of 20 mL. A 1 mM TBTO stock solution was prepared in ethanol and 10 µl of this solution was added to each one of the cell suspension samples so that the final concentration of TBTO was 0.5 µM, whereas 10 µl of ethanol without TBTO was added to the control cells. Two independent replicate experiments for both treated sample and control were performed. Subsequently, cells were incubated at 37 °C for 6 hr.

cells = settings: TBTO concentrations higher than 1µM and incubation times longer than 6h; refs [10, 21]; cited from earlier work
Matrin 3 = test: Western blot analysis of TBTO-treated and control cell extracts; type: cell-based, Murine; settings: Immunoblot, TBTO-treated cells versus control extract; EL4 cells, 0.5 µM TBTO, 6 hr; Fig. 1 b
Method: (§1) Murine EL4 cells were cultured as described before.
(§2) After exposure, cell suspensions were centrifuged at 1200 rpm for 10 min at 4 °C and the pellets were washed in 20 mL phosphate-buffered saline (PBS, pH 7.2) and centrifuged again. This procedure was repeated twice. The obtained cell pellet of each sample or control was then suspended in 5 mL of phosphoprotein lysis buffer prepared following the instructions of Phosphoprotein Purification Kit (Qiagen). This volume of the lysis buffer contained, in addition to the detergent CHAPS and Benzonase (10 µL), one tablet of protease inhibitor and Phosphatase Inhibitor Cocktail 1 (10 µL). The cell suspension was incubated on ice for 30 min and vortexed briefly and gently every 10 min. After that, the cell lysate was centrifuged at 10.000 rpm for 30 min at 4 °C. The supernatant was then taken and protein concentration determined according to Bradford. A total amount of 2.5 mg protein, at the concentration of 0.1 mg/mL, was loaded on the affinity column, which was pre-equilibrated with lysis buffer as recommended by the manufacturer. The chromatography was performed at room temperature. […] These enriched fractions were combined and the protein concentration was determined. […]

RPS6KB1 (Thr444/Ser447) = test: as above; type: cell-based, Murine; settings: treated cells compared to control extract, EL4 cells, 0.5 µM TBTO, 6 hr, Figure 1a
Method: as §1, §2

MAPK1 = test: Phosphoproteome analysis of TBTO-treated cells (phosphoprotein and TiO2 phosphopeptide enrichment, nano-LC/MS/MS); type: cell-based, Murine; settings: whole protein; abundantly present in control cells; EL4 cells, 0.5 µM TBTO, 6 hr
Method: as §1, §2

CCC[CH2][Sn]([CH2]CCC)([CH2]CCC)[O][Sn]([CH2]CCC)([CH2]CCC)[CH2]CCC [TBTO, tributyltin oxide]
Cell viability (Murine EL4 cells): 85-90%
apoptosis of cells (cells): caused apoptosis of cells
band corresponding to Matrin 3 (ca. 125-130 kDa) (Matrin 3): not detectable
intensity signal of the band corresponding to Thr444/Ser447 (RPS6KB1 (Thr444/Ser447)): decrease in the intensity signal
detection of MAPK1 phosphoprotein in TBTO-treated cells (MAPK1): not detected
